# Results published in publication PMC4696656, “Insights into the Mechanism of Action of Bactericidal Lipophosphonoxins” (PLoS ONE, 2015).
# Like-named read-outs stand apart in the source and are kept apart here.
# Columns and labels:
# [1] = comparable conditions, 1 M salt solution, cited from earlier work
# [2] = test system: Mouse macrophages J774A.1; assay: Membrane permeabilization assay (propidium iodide uptake); assay type: cell-based; settings: LPPOs 10 mg/L, melittin 10 μM
# Procedure: Mouse macrophages J774A.1 (ATCC, number TIB-67) were cultured at 37°C in a humidified air/CO2 (19:1) atmosphere in RPMI medium supplemented with 10% (v/v) heat-inactivated fetal bovine serum, penicillin (100 IU/ml), streptomycin (100 mg/L), and amphotericin B (250 μg/L). For fluorescence measurements, cells were mechanically harvested, seeded on glass coverslips in 6-well plates, and grown to 30% confluence (about 2x10^5 cells). Cells grown on coverslips were washed in modified HBSS solution (140 mM NaCl, 5 mM KCl, 2 mM CaCl2, 3 mM MgCl2, 10 mM HEPES-Na, 50 mM glucose, pH 7.4) and promptly mounted into custom-made polypropylene holder which was placed horizontally into a quartz cuvette filled with HBSS containing 10 μM PI. The uptake of PI was observed as fluorescence increase using identical setting as with bacterial cells (see above). The observed area of the coverslip was about 10 mm^2, corresponding to approximately 10^4 cells.
# B. subtilis 168 = assay: Selection for resistant strains, stepwise two-fold increased concentration; assay type: cell-based, Bacillus subtilis; settings: 24 h cultures, two-fold increased concentration each transfer; rifampicin from 0.01 mg/L, DR5026 from 0.5 mg/L
# Procedure: A) B. subtilis. […] Then, the growth of the culture was evaluated by OD600nm and an aliquot of the culture was transferred to a new tube with fresh medium and a two-fold increased concentration of the active compound. This template was followed until no growth was detected for DR5026 or until B. subtilis grew at 5 mg/L of rifampicin.
# Bacillus subtilis = assay: MIC, standard microdilution method
compound,measurement,setting,value
gramicidin A,channel conductance,[1],ca. 20 pS
melittin,effect on cytoplasmic membrane permeability (PI uptake),[2],did so
alamethicin,channel conductance,[1]; no reference given,ca. 600 pS
"CO[C@H]1/C=C/O[C@@]2(C)Oc3c(C)c(O)c4c(O)c(c(/C=N/N5CCN(C)CC5)c(O)c4c3C2=O)NC(=O)/C(C)=C\C=C\[C@H](C)[C@H](O)[C@@H](C)[C@@H](O)[C@@H](C)[C@H](OC(C)=O)[C@@H]1C [rifampicin, reference compound]",development of resistance,B. subtilis 168,able to obtain cells growing in the presence of 5 mg/L of rifampicin
same,MIC against wt B. subtilis,"Bacillus subtilis; B. subtilis 168, as stated for the resistance selection experiment",0.06 µg/mL
same,MIC,"Bacillus subtilis; Bacillus subtilis, read-out: MIC against wt B. subtilis, B. subtilis 168, as stated for the resistance selection experiment",~0.06 µg/mL
